30 compounds from US11186554B2, “Non-fused tricyclic compounds” (VIVACE THERAPEUTICS, INC., priority 2017, dated 2021) can be followed below.

Where two headings read alike, the source gives them in different places. Bounds are passed on as bounds.

In general, IC50 refers to the concentration that inhibits the measured activity by half.

This assay concerns firefly luciferase activity. Briefly: Dual-Glo firefly/renilla luciferase reporter assay in cells. In kind it is cell-based. (In general: In a reporter assay the amount or activity of a reporter protein is the signal.)
[1] abbreviates: 24 hrs compound treatment, starting from 3 uM, 1:3 dilution, 10 points, read-out: Firefly Luciferase IC50.
The mark [2] stands for this setting: 24 h, read-out: Firefly Luciferase IC50 (μM).

On to `OC1(Cn2nnc(-c3ccccc3Nc3ccc(C(F)(F)F)cc3)n2)CCCNC1` (stereo not drawn) [Compound 156, 3-((5-(2-((4-(trifluoromethyl)phenyl)amino)phenyl)-2H-tetrazol-2-yl)methyl) piperidin-3-ol], for which the IC50 under setting [1] was in the range of 0.1 to 1 µM.
For the compound `CC(C)(C)OC(=O)N1CCCC(O)(Cn2nnc(-c3ccccc3Nc3ccc(C(F)(F)F)cc3)n2)C1` (stereo not drawn) [Compound 147], the IC50 under setting [1] was in the range of 1 to 5 µM.
On the same count and under the same terms, the same measure for `FC(F)(F)Oc1ccc(Nc2ccccc2-c2nnn(Cc3ccncc3)n2)cc1` [Compound 53, 2-[2-(4-pyridylmethyl)tetrazol-5-yl]-N-[4-(trifluoromethoxy)phenyl]aniline]: 1 to 5 µM; for `OCCn1cc(-c2ccccc2Nc2ccc(C(F)(F)F)cc2)nn1` [Compound 191, 2-(4-(2-((4-(trifluoromethyl)phenyl)amino)phenyl)-1H-1,2,3-triazol-1-yl)ethan-1-ol]: under 0.1 µM; for `COCCn1nnc(-c2ccccc2Nc2cccc(C(F)(F)F)c2)n1` [Compound 5, 2-[2-(2-methoxyethyl)tetrazol-5-yl]-N-[3-(trifluoromethyl)phenyl]aniline]: 1 to 5 µM.
On the same count and under the same terms, the same measure for `C[C@@H](O)[C@H](C)n1nnc(-c2ccccc2Nc2ccc(C(F)(F)F)cc2)n1` [Compound 194, (2R,3S)-3-(5-(2-((4-(trifluoromethyl)phenyl)amino)phenyl)-2H-tetrazol-2-yl)butan-2-ol]: under 0.1 µM.
On to `CNC(=O)Cn1nnc(-c2ccccc2Nc2ccc(OC(F)(F)F)cc2)n1` [Compound 46, N-methyl-2-[5-[2-[4-(trifluoromethoxy)anilino]phenyl]tetrazol-2-yl]acetamide], for which the IC50 under setting [2] was 0.1 to 1 µM.
Regarding `FC(F)(F)c1ccc(Nc2ccccc2-c2nnn(C3COCOC3)n2)cc1` [Compound 263, 2-(2-(1,3-dioxan-5-yl)-2H-tetrazol-5-yl)-N-(4-(trifluoromethyl)phenyl)aniline], the IC50 under setting [1] was under 0.1 µM.
Consider `OCCn1cnc(-c2ccccc2Nc2cccc(C(F)(F)F)c2)n1` [Compound 39, 2-(3-(2-((3-(trifluoromethyl)phenyl)amino)phenyl)-1H-1,2,4-triazol-1-yl)ethanol], for which, under setting [2], the IC50 fell in the range of 1 to 5 µM.
As to `FCCn1nnc(-c2ccccc2Nc2ccc(C(F)(F)F)cc2)n1` [Compound 117, 2-[2-(2-fluoroethyl)tetrazol-5-yl]-N-[4-(trifluoromethyl)phenyl]aniline], the IC50 under setting [1] is 0.1 to 1 µM.
`O=C1N[C@H](Cn2nnc(-c3ccccc3Nc3ccc(C(F)(F)F)cc3)n2)CO1` [Compound 158, (R)-4-((5-(2-((4-(trifluoromethyl)phenyl)amino)phenyl)-2H-tetrazol-2-yl)methyl)oxazolidin-2-one]: the 50% inhibitory concentration (IC50) under setting [1] lay in the range of 0.1 to 1 µM.
The same measure, in the same setting: the same measure for `OC1(Cn2nnc(-c3ccccc3Nc3ccc(C(F)(F)F)cc3)n2)CCOCC1` [Compound 138, 4-[[5-[2-[4-(trifluoromethyl)anilino]phenyl]tetrazol-2-yl]methyl]tetrahydropyran-4-ol]: 0.1 to 1 µM.
Still for that read-out and setting: the value for `C[C@H](O)[C@@H](C)n1nnc(-c2ccccc2Nc2ccc(C(F)(F)F)cc2)n1` [Compound 195, (2S,3R)-3-(5-(2-((4-(trifluoromethyl)phenyl)amino)phenyl)-2H-tetrazol-2-yl)butan-2-ol] was under 0.1 µM.
Take `OCCn1nnc(-c2ccccc2Nc2ccc(Cl)cc2)n1` [Compound 208, 2-(5-(2-((4-chlorophenyl)amino)phenyl)-2H-tetrazol-2-yl)ethan-1-ol]: the 50% inhibitory concentration (IC50) under setting [2] lay within 0.1 to 1 µM.
As for `OCCCn1nnc(-c2ccccc2Nc2ccc(C(F)(F)F)cc2)n1` [Compound 98, 3-(5-(2-((4-(trifluoromethyl)phenyl)amino)phenyl)-2H-tetrazol-2-yl)propan-1-01], the half-inhibitory concentration (IC50) under setting [1] is under 0.1 µM.
With `CCOC(=O)Cn1nnc(-c2ccccc2Nc2ccc(F)cc2)n1` [Compound 7, ethyl 2-[5-[2-(4-fluoroanilino)phenyl]tetrazol-2-yl]acetate], under setting [2], the concentration for half-maximal inhibition (IC50) lay within 0.1 to 1 µM.
As to `C[C@H]([C@@H](C)O)n1nnc(-c2ccccc2Nc2ccc(C(F)(F)F)cc2)n1` [Compound 193, (2R,3R)-3-(5-(2-((4-(trifluoromethyl)phenyl)amino)phenyl)-2H-tetrazol-2-yl)butan-2-ol], the concentration for half-maximal inhibition (IC50) under setting [1] is under 0.1 µM.
Consider `CC(=O)NCCCn1nnc(-c2ccccc2Nc2ccc(C(F)(F)F)cc2)n1` [Compound 111, N-[3-[5-[2-[4-(trifluoromethyl)anilino]phenyl]tetrazol-2-yl]propyl]acetamide], for which the IC50 under setting [1] fell in the range of 0.1 to 1 µM.
Still for that read-out and setting: the value for `OC(Cn1nnc(-c2ccccc2Nc2ccc(C(F)(F)F)cc2)n1)c1ccccc1` (stereo not drawn) [Compound 143, 1-phenyl-2-[5-[2-[4-(trifluoromethyl)anilino]phenyl]tetrazol-2-yl]ethanol] was 1 to 5 µM.
On to `OCCn1nnc(-c2ccc(F)cc2Nc2ccc(C(F)(F)F)cc2)n1` [Compound 181, 2-[5-[4-fluoro-2-[4-(trifluoromethyl)anilino]phenyl]tetrazol-2-yl]ethanol], for which the IC50 under setting [1] is under 0.1 µM.
On to `Cc1nn(CCO)cc1-c1ccccc1Nc1ccc(C(F)(F)F)cc1` [Compound 83, 2-[3-methyl-4-[2-[4-(trifluoromethyl)anilino]phenyl]pyrazol-1-yl]ethanol], for which the IC50 under setting [1] is 1 to 5 µM.
As to `OCCn1nnc(-c2cccc(F)c2Nc2ccc(C(F)(F)F)cc2)n1` [Compound 188, 2-(5-(3-fluoro-2-((4-(trifluoromethyl)phenyl)amino)phenyl)-2H-tetrazol-2-yl)ethanol], the IC50 under setting [2] is under 0.1 µM.
Take `NC(=O)OCCn1nnc(-c2ccccc2Nc2ccc(C(F)(F)F)cc2)n1` [Compound 124, 2-[5-[2-[4-(trifluoromethyl)anilino]phenyl]tetrazol-2-yl]ethyl carbamate]: under setting [1], the 50% inhibitory concentration (IC50) is under 0.1 µM.
Take `OCCn1nnc(-c2cc(C(F)(F)F)ccc2Nc2ccc(C(F)(F)F)cc2)n1` [Compound 262, 2-(5-(5-(trifluoromethyl)-2-((4-(trifluoromethyl)phenyl)amino)phenyl)-2H-tetrazol-2-yl)ethanol]: the half-maximal inhibitory concentration (IC50) under setting [2] lay within 0.1 to 1 µM.
For `[N-]=[N+]=Nc1ccc(Nc2ccccc2-c2nnn(CCO)n2)cc1` [Compound 179, 2-[5-[2-(4-azidoanilino)phenyl]tetrazol-2-yl]ethanol], under setting [1], the IC50 lay in the range of 0.1 to 1 µM.
Turning to `OC1(Cn2nnc(-c3ccccc3Nc3ccc(C(F)(F)F)cc3)n2)CCCCC1` [Compound 133, 1-[[5-[2-[4-(trifluoromethyl)anilino]phenyl]tetrazol-2-yl]methyl]cyclohexanol], the IC50 under setting [1] fell in the range of 0.1 to 1 µM.
Take `OCCn1nnc(-c2ccccc2Nc2ccc(F)c(F)c2)n1` [Compound 25, 2-[5-[2-(3,4-difluoroanilino)phenyl]tetrazol-2-yl]ethanol]: the concentration for half-maximal inhibition (IC50) under setting [1] lay in the range of 0.1 to 1 µM.
The same measure, in the same setting: the same measure for `CC(=O)NCCn1nnc(-c2ccccc2Nc2ccc(C(F)(F)F)cc2)n1` [Compound 92, N-[2-[5-[2-[4-(trifluoromethyl)anilino]phenyl]tetrazol-2-yl]ethyl]acetamide]: 0.1 to 1 µM; for `OC1(Cn2nnc(-c3ccccc3Nc3ccc(C(F)(F)F)cc3)n2)CC1` [Compound 204, 1-((5-(2-((4-(trifluoromethyl)phenyl)amino)phenyl)-2H-tetrazol-2-yl)methyl) cyclopropan-1-ol]: under 0.1 µM.
With `NC(=O)Cn1nnc(-c2ccccc2Nc2ccc(C(F)(F)F)cc2)n1` [Compound 102, 2-[5-[2-[4-(trifluoromethyl)anilino]phenyl]tetrazol-2-yl]acetamide], the IC50 under setting [2] was under 0.1 µM.
